Measurements as given in patent US20060172334A1, “Method for detecting adverse reaction susceptibility to an HMG CoA reductase inhibitor” (Marshfield Clinic, priority 2005, published 2006).
Read-outs that look alike come from different tables or passages of the source.

Conditions: cases only
[1] = CYP3A4 heterozygous (CYP3A4*1A/*1B), less gemfibrozil
[2] = CYP3A4 heterozygous (CYP3A4*1A/*1B), less gemfibrozil AND less niacin
[3] = CYP3A4 heterozygous (CYP3A4*1A/*1B), no medications removed
[4] = CYP3A4 homozygous (CYP3A4*1A/*1A), less gemfibrozil
[5] = CYP3A4 homozygous (CYP3A4*1A/*1A), less gemfibrozil AND less niacin
[6] = CYP3A4 homozygous (CYP3A4*1A/*1A), no medications removed
[7] = CYP3A5 heterozygous (CYP3A5*1/*3), less gemfibrozil
[8] = CYP3A5 heterozygous (CYP3A5*1/*3), less gemfibrozil AND less niacin
[9] = CYP3A5 heterozygous (CYP3A5*1/*3), no medications removed
[10] = CYP3A5 homozygous (CYP3A5*3/*3), less gemfibrozil
[11] = CYP3A5 homozygous (CYP3A5*3/*3), less gemfibrozil AND less niacin
[12] = CYP3A5 homozygous (CYP3A5*3/*3), no medications removed

Protocol: Study subjects were enrolled at a large, horizontally-integrated, multispecialty group practice located in central Wisconsin. […] Case assignment (i.e., status as a case versus control) was determined by criteria outlined below.
One hundred thirty-seven adult subjects (68 cases and 69 controls) agreed to participate in this study. Due to potentially confounding pharmacokinetic interactions, patients were excluded from the study if they had previously been diagnosed with kidney disease or liver disease. Patients were also excluded if they had pre-existing muscle disease. Patients were not excluded if they were taking concomitant medications.
To determine whether CYP3A4*1B or CYP3A5*3 were associated with the severity of muscle damage, serum CK levels were ranked and compared between genotypes in the case cohort only.

## CC(C)c1c(C(=O)Nc2ccccc2)c(-c2ccccc2)c(-c2ccc(F)cc2)n1CC[C@@H](O)C[C@@H](O)CC(=O)O [atorvastatin]
[1]
  serum CK level, Mean: 268.8
  serum CK level, Median: 246.0
[2]
  serum CK level, Mean: 246.6
  serum CK level, Median: 239.0
[3]
  serum CK level, Mean: 268.8
  serum CK level, Median: 246.0
[4]
  serum CK level, Mean: 434.6
  serum CK level, Median: 316.5
[5]
  serum CK level, Mean: 420.4
  serum CK level, Median: 316.5
[6]
  serum CK level, Mean: 441.1
  serum CK level, Median: 321.0
[7]
  serum CK level, Mean: 261.7
  serum CK level, Median: 239.0
[8]
  serum CK level, Mean: 249.9
  serum CK level, Median: 237.5
[9]
  serum CK level, Mean: 344.0
  serum CK level, Median: 246.0
[10]
  serum CK level, Mean: 441.9
  serum CK level, Median: 321.0
[11]
  serum CK level, Mean: 428.0
  serum CK level, Median: 321.0
[12]
  serum CK level, Mean: 429.2
  serum CK level, Median: 317.5
